Like-named read-outs stand apart in the source and are kept apart here.
Tests used:
[1] = tested on: Daudi cell line (AID positive); assay: Primary screening cell killing assay (Cell-Titer Glo, Day 7); assay type: cell-based; details: Homo sapiens, 168 h; Daudi cells (AID positive), cell death on Day 7; read-out: AID+ EC50
Description: (§1) Primary screening was a phenotypic screen that utilized the synthetic lethal interaction between AID and RAD51 to identify compounds that were both potent and on target. AID expressing cells are dependent upon RAD51 for survival; inhibiting RAD51 in AID positive cells results in a cytotoxic effect.
The first step was to set up a cell killing assay in the Daudi cell line (AID positive). A 96 well u-bottom plate was prepared by writing the experiment number, plate number, date and initials in the top right corner of the plate lid. With a sterile 300 ml reservoir, and 25 ml serological pipette, evaporation buffer media was pipetted into reservoir in 25 ml increments. Using the liquid handler, 150 ul of evaporation buffer media was pipetted from reservoir into rows A and H, and Columns 1 and 12 of the 96 well u-bottom plate. Cell cultures were counted to obtain the density of cells per ml, and the culture viability. The cell density information was used to obtain 1,000,000 cells from culture using a 5 mL serological pipette into an epi tube. The cell density information from the culture was used to calculate the number of cells and volume of media needed for the assay to seed 1250 cells in 130 ul of media per available culture well in the 96 well u-bottom plate. Rows B through F were used for cells (50 wells in total), with row G left for an empty media control. The calculation was overestimated by 10 mL to account for the dead volume in the 300 ml reservoir. Once the media volume was calculated, the appropriate volume of media was pipetted in 25 mL increments into the 250 mL bottle using a 25 mL serological pipette. The 250 ml bottle was capped tightly, and placed into a 37° C. water bath for 2 minutes. While the culture media was warming, 10 mL of fresh media was pipetted from the 500 mL culture media bottle into a sterile 25 mL reservoir. Using the Eppendorf multichannel pipette, 130 ul of media was piptted from the 25 mL reservoir into row G of the 96 well u-bottom plate. Once the 250 mL bottle of media was warmed, the volume of culture needed was pipetted into the bottle, and mixed gently with a 25 mL serological pipette as to not create bubbles, and then the contents of the bottle were pipetted into a new 300 mL reservoir. Using the liquid handler, 130 ul of culture was pipetted from the 300 mL reservoir into rows B through F of the 96 well u-bottom plate. Once the culture was added, the plate was placed into a 37° C. incubator until the compound master plate was prepared for use.
Two 96 well u-bottom plates were prepared by writing the master plate name in the upper right corner of the plate lid. Labeling one DMSO master and the other Media Master. The compounds of interest were obtained from the laboratory freezer, and placed into a 25 well storage box with a lid, and set the box aside. The compounds were vortexed after thawing but before use. Using an automatic multichannel pipette, 20 ul of 100% DMSO was pipetted into wells B3-B11 through G3-G11 of the DMSO master plate. For each compound on the master plate, 50 ul of the compound were pipetted in the appropriate well of row 2 (reference plate map to determine appropriate well). A serial dilution was prepared beginning by aspirating 20 ul from row 2 and mixing with row 3, repeating until row 11 was reached. Using the liquid handler, 194 ul of Daudi media was dispensed into wells B2-B11 through G2-G11 of the Media master plate. Using the liquid handler, 6 ul from the DMSO master plate was aspirated and dispensed into the media master plate, mixing 100 ul twice.
Compounds from master plate were then added to the culture plate. The culture plates were removed from the incubator, and set inside the biosafety cabinet. Using a liquid handler, 20 ul from wells B2 to B11 through G2 to G11 of master plate were aspirated, and dispensed into wells B2 to B11 through G2 to G11 of culture plate. This set was continued with each culture plate. […]

[2] = tested on: WI-38 cells (AID negative); assay: Primary screening cell killing assay repeated in AID negative cells; assay type: cell-based, Human; details: WI-38 cells (AID negative), read-out: AID− EC50
Description: as §1
Percent cell death and EC50 values were calculated by comparing the cell viability of the compound treated wells to the non-treated wells. Normalized RLU values were obtained by subtracting the media well values from each of the wells in the same column, and then dividing that value by the DMSO treated cells values. The percent kill was then calculated by subtracting the normalized RLU value from 1 and multiplying by 100. The average normalized percent kill value and standard error of the mean was then calculated. The kill values were then inputted into Prism with the corresponding standard errors. In Prism a non-linear regression line was plotted with the data points using a semi-log scale, and the EC50 value was calculated.
The activity of the claimed compounds was measured in a variety of cell lines with different expression levels of activation induced cytidine deaminase (AICDA). The potency assay was repeated in all of the listed cell lines and the EC50 values recorded.

[3] = Bi-directional Caco-2 permeability; assay type: in vitro ADME; details: human; for Papp A→B / Papp B→A: Caco-2, 37 C, up to 90 minutes; for Papp A→B: apical to basolateral, read-out: AB Papp (cm/sec × 10^6); for Papp B→A: basolateral to apical, read-out: BA Papp (cm/sec × 10^6); for efflux ratio: Caco-2 efflux ratio, read-out: BA/AB Ratio
Description: Bi-directional Caco-2 permeability was assayed. Caco-2 cells were seeded onto permeable polycarbonate supports and allowed to differentiate for about 3 weeks prior to being used in the assays. The cells were then exposed to the compounds from either the apical or basolateral sides and incubated at 37 C for up to 90 minutes under light agitation. Compound transport was then measured using LC/MS/MS analysis at 30, 60, and 90 minutes.

[4] = Caco-2, apical to basolateral, read-out: AB Recovery %
[5] = Caco-2, basolateral to apical, read-out: BA Recovery %

CC(C)OC(=O)NC1CCC(c2ncc(-c3ccc(NC(=O)OC[C@@H]4CCCN4)cc3S(=O)(=O)NC(C)(C)C)s2)CC1 (stereo partly shown) [Compound 37]
EC50 [1]: ≤ 1000 nM

CC(C)OC(=O)NC1CCC(c2ncc(-c3ccc(NC(=O)O[C@@H](C)c4ccccc4)cc3S(=O)(=O)NC(C)(C)C)s2)CC1 (stereo partly shown) [Compound 41]
EC50 [2]: > 1000 nM

CC(C)(C)NS(=O)(=O)c1cc(NC(=O)NCc2ccccn2)ccc1-c1cnc(C2CCC(NC(=O)OC(C)(C)C)CC2)s1 (stereo not shown) [Compound 45]
EC50 [1]: ≤ 100 nM
recovery at 90 min [3, 4]: 73.6%
recovery at 90 min [3, 5]: 84.4%
Papp A→B [3]: 7.6 ×10⁻⁶ cm/s
Papp B→A [3]: 10.8 ×10⁻⁶ cm/s
efflux ratio [3]: 1.4

CC(C)OC(=O)NC1CCC(c2ncc(-c3ccc(NC(=O)O[C@H](C)c4ccccc4)cc3S(=O)(=O)NC(C)(C)C)s2)CC1 (stereo partly shown) [Compound 43]
EC50 [1]: ≤ 1000 nM
EC50 ([2]; Homo sapiens): > 1000 nM

CC(C)OC(=O)Nc1ccc(-c2cnc(C3CCC(NC(=O)OC4COC4)CC3)s2)c(S(=O)(=O)NC(C)(C)C)c1 (stereo not shown) [Compound 48]
EC50 [1]: ≤ 1000 nM

C=S(=O)(NC(C)(C)C)c1cc(NC(=O)NCc2ccccc2)ccc1-c1cnc(N2CCC(NC(=O)OC(C)C)CC2)s1 (stereo not shown) [Compound 68]
EC50 [1]: ≤ 1000 nM

CC(C)OC(=O)N[C@@H]1CC[C@@H](c2ncc(-c3ccc(NC(=O)NCc4ccccc4)cc3S(=O)(=O)NC(C)(C)C)s2)OC1 [Compound 59A]
EC50 [1]: ≤ 1000 nM

CC(C)NC(=O)OC1CCC(c2ncc(-c3ccc(NC(=O)OC(C)C)cc3S(=O)(=O)NC(C)(C)C)s2)CC1 (stereo not shown) [Compound 20]
EC50 [1]: > 1000 nM
recovery at 90 min [3, 4]: 44.8%
recovery at 90 min [3, 5]: 96.6%
Papp A→B [3]: 9.4 ×10⁻⁶ cm/s
Papp B→A [3]: 10.4 ×10⁻⁶ cm/s
efflux ratio [3]: 1.1

CC(C)(C)NS(=O)(=O)c1cc(NC(=O)OC2COC2)ccc1-c1cnc(C2CCC(NC(=O)OC3COC3)CC2)s1 (stereo not shown) [Compound 49]
EC50 [1]: ≤ 1000 nM
EC50 ([2]; Homo sapiens): > 1000 nM

CC(C)OC(=O)Nc1ccc(-c2cnc(C34CCC(NC(=O)OC(C)C)(CC3)CC4)s2)c(S(=O)(=O)NC(C)(C)C)c1 [Compound 17]
EC50 [1]: ≤ 1000 nM

CC(C)OC(=O)Nc1ccc(-c2cnc([C@@H]3CC[C@@H](NC(=O)OC(C)C)CN3)s2)c(S(=O)(=O)NC(C)(C)C)c1 (relative stereo) [Compound 63]
EC50 [1]: ≤ 1000 nM

CC(C)OC(=O)NC1CCC(c2ncc(-c3ccc(NC(=O)NCc4cccnc4)cc3S(=O)(=O)NC(C)(C)C)s2)CC1 (stereo not shown) [Compound 25]
EC50 [1]: ≤ 100 nM

CC(C)OC(=O)NC1CCC(c2ncc(-c3ccc(NC(=O)NCc4ccc(O)cc4)cc3S(=O)(=O)NC(C)(C)C)s2)CC1 (stereo not shown) [Compound 73]
EC50 [1]: ≤ 100 nM
EC50 ([2]; Homo sapiens): > 1000 nM

CC(C)OC(=O)NC1CCC(c2ncc(-c3ccc(NC(=O)OC[C@@H]4CCCN4C)cc3S(=O)(=O)NC(C)(C)C)s2)CC1 (stereo partly shown) [Compound 35]
EC50 [1]: ≤ 1000 nM
recovery at 90 min [3, 4]: 98.8%
recovery at 90 min [3, 5]: 108%

CC(C)OC(=O)Nc1ccc(-c2sc(C3CCC(NC(=O)OC(C)C)CC3)nc2F)c(S(=O)(=O)NC(C)(C)C)c1 (stereo not shown) [Compound 58]
EC50 [1]: ≤ 1000 nM

CC(C)OC(=O)Nc1ccc(-c2cnc(C3CC(NC(=O)OC(C)C)C3)s2)c(S(=O)(=O)NC(C)(C)C)c1 (stereo not shown) [Compound 65]
EC50 [1]: ≤ 1000 nM

CC(C)OC(=O)N[C@@H]1CCC(c2ncc(-c3ccc(NC(=O)NCc4ccccc4)cc3S(=O)(=O)NC(C)(C)C)s2)OC1 (mixture of isomers) [Compound 59]
EC50 [1]: ≤ 100 nM
EC50 ([2]; Homo sapiens): > 1000 nM

CC(C)OC(=O)Nc1ccc(-c2cnc(C3CCC(NC(=O)OC[C@@H]4CCCN4C)CC3)s2)c(S(=O)(=O)NC(C)(C)C)c1 (stereo partly shown) [Compound 9]
EC50 [1]: ≤ 1000 nM

CN1CCC[C@@H]1COC(=O)NC1CCC(c2ncc(-c3ccc(NC(=O)NCc4ccccc4)cc3S(=O)(=O)NC(C)(C)C)s2)CC1 (stereo partly shown) [Compound 11]
EC50 [1]: ≤ 1000 nM

CC(C)OC(=O)Nc1ccc(-c2cnc(C3CC[C@@H](NC(=O)OC(C)C)CO3)s2)c(S(=O)(=O)NC(C)(C)C)c1 (mixture of isomers) [Compound 60]
EC50 [1]: ≤ 1000 nM

CC(C)OC(=O)NC1CCC(c2ncc(-c3ccc(NC(=O)NCc4ccccc4F)cc3S(=O)(=O)NC(C)(C)C)s2)CC1 (stereo not shown) [Compound 28]
EC50 [1]: ≤ 100 nM
recovery at 90 min [3, 4]: 66.9%
recovery at 90 min [3, 5]: 81%

CC(C)OC(=O)N[C@H]1CC[C@@H](c2ncc(-c3ccc(NC(=O)NCc4ccccc4)cc3S(=O)(=O)NC(C)(C)C)s2)CC1 [Compound 66B]
EC50 [1]: ≤ 1000 nM

CC(C)OC(=O)Nc1ccc(-c2cnc([C@H]3CC[C@H](NC(=O)OC(C)C)CO3)s2)c(S(=O)(=O)NC(C)(C)C)c1 [Compound 60B]
EC50 [1]: ≤ 1000 nM

CC(C)NC(=O)OC1CCC(c2ncc(-c3ccc(NC(=O)NCc4ccccc4)cc3S(=O)(=O)NC(C)(C)C)s2)CC1 (stereo not shown) [Compound 21]
EC50 [1]: ≤ 100 nM
recovery at 90 min [3, 4]: 58.6%
recovery at 90 min [3, 5]: 78.3%

CC(C)OC(=O)NC1CCC(c2ncc(-c3ccc(NC(=O)OCC4CCNCC4)cc3S(=O)(=O)NC(C)(C)C)s2)CC1 (stereo not shown) [Compound 33]
EC50 [1]: > 1000 nM

COc1cc(NC(=O)OC(C)C)cnc1-c1ncc(-c2ccc(NC(=O)OCC3CCNCC3)cc2S(=O)(=O)NC(C)(C)C)s1 [Compound 56]
EC50 [1]: ≤ 1000 nM

CC(C)OC(=O)Nc1ccc(-c2cnc(C3CCC(NC(=O)OC(C)(C)C)CC3)s2)c(S(=O)(=O)NC(C)(C)C)c1 (stereo not shown) [Compound 44]
EC50 [1]: > 1000 nM
recovery at 90 min [3, 4]: 36.2%
recovery at 90 min [3, 5]: 69.4%
Papp A→B [3]: 3.2 ×10⁻⁶ cm/s
Papp B→A [3]: 4.2 ×10⁻⁶ cm/s
efflux ratio [3]: 1.3

CC(C)OC(=O)Nc1ccc(-c2cnc(C3CCC(NC(=O)OC4CCCC4)CC3)s2)c(S(=O)(=O)NC(C)(C)C)c1 (stereo not shown) [Compound 7]
EC50 [1]: ≤ 1000 nM
recovery at 90 min [3, 4]: 55.9%
recovery at 90 min [3, 5]: 92%
Papp A→B [3]: 1.7 ×10⁻⁶ cm/s
Papp B→A [3]: 2.1 ×10⁻⁶ cm/s
efflux ratio [3]: 1.2

CC(C)OC(=O)NC1CCC(c2ncc(-c3ccc(NC(=O)OC[C@H]4CCCN4C)cc3S(=O)(=O)NC(C)(C)C)s2)CC1 (stereo partly shown) [Compound 34]
EC50 [1]: ≤ 1000 nM
recovery at 90 min [3, 4]: 98.2%
recovery at 90 min [3, 5]: 96.8%

CC(C)OC(=O)NC1CCC(c2ncc(-c3ccc(NC(=O)NCc4ccc(F)cc4)cc3S(=O)(=O)NC(C)(C)C)s2)CC1 (stereo not shown) [Compound 23]
EC50 [1]: ≤ 100 nM

CN1CCC[C@H]1COC(=O)N[C@H]1CC[C@H](c2ncc(-c3ccc(NC(=O)NCc4ccccc4)cc3S(=O)(=O)NC(C)(C)C)s2)CC1 [Compound 12]
EC50 [1]: ≤ 1000 nM

CC(C)OC(=O)NC1CCC(c2ncc(-c3ccc(NC(=O)NCc4ccncc4)cc3S(=O)(=O)NC(C)(C)C)s2)CC1 (stereo not shown) [Compound 22]
EC50 [1]: ≤ 1000 nM
recovery at 90 min [3, 4]: 83.1%
recovery at 90 min [3, 5]: 89%
Papp A→B [3]: 1.1 ×10⁻⁶ cm/s
Papp B→A [3]: 21 ×10⁻⁶ cm/s
efflux ratio [3]: 18.7

CC(C)OC(=O)NC1CCC(c2ncc(-c3ccc(NC(=O)OC[C@H]4CCCN4)cc3S(=O)(=O)NC(C)(C)C)s2)CC1 (stereo partly shown) [Compound 36]
EC50 [1]: ≤ 1000 nM
